ChEMBL document CHEMBL1687837, “Roles of residues Cys69, Asn104, Phe160, Gly232, Ser237, and Asp240 in extended-spectrum beta-lactamase Toho-1” (2011)
Converted amounts (≈) assume the structure as drawn.

B1: Beta-lactamase Toho-1 (Escherichia coli), Q47066 (protein)
chain: MMTQSIRRSMLTVMATLPLLFSSATLHAQANSVQQQLEALEKSSGGRLGVALINTADNSQILYRADERFAMCSTSKVMAAAAVLKQSESDKHLLNQRVEIKKSDLVNYNPIAEKHVNGTMTLAELGAAALQYSDNTAMNKLIAHLGGPDKVTAFARSLGDETFRLDRTEPTLNTAIPGDPRDTTTPLAMAQTLKNLTLGKALAETQRAQLVTWLKGNTTGSASIRAGLPKSWVVGDKTGSGDYGTTNDIAVIWPENHAPLVLVTYFTQPEQKAERRRDILAAAAKIVTHGF

Legend:
Escherichia coli [1] = test: Activity of Escherichia coli beta-lactamase Toho-1 G232A mutant assessed as compound hydrolysis by spectrophotometry
Escherichia coli [2] = test: Antibacterial activity against Escherichia coli AS226 carrying pBSDS237A mutant after 18 hrs by broth microdilution method; type: functional; conditions: AS226, 18 h
Escherichia coli [3] = test: Ratio of Kcat to Km for Escherichia coli beta-lactamase Toho-1 D240A mutant assessed as compound hydrolysis by spectrophotometry
Escherichia coli [4] = test: Antibacterial activity against Escherichia coli AS226 carrying pBSDD240S mutant after 18 hrs by broth microdilution method; type: functional; conditions: AS226, 18 h
Escherichia coli [5] = test: Activity of Escherichia coli beta-lactamase Toho-1 D240S mutant assessed as compound hydrolysis by spectrophotometry
Escherichia coli [6] = test: Ratio of Kcat to Km for Escherichia coli beta-lactamase Toho-1 N104D mutant assessed as compound hydrolysis by spectrophotometry
Escherichia coli [7] = test: Antibacterial activity against Escherichia coli AS226 carrying pBSD-H2 after 18 hrs by broth microdilution method; type: functional; conditions: AS226, 18 h
Escherichia coli [8] = test: Activity of Escherichia coli beta-lactamase Toho-1 F160T mutant assessed as compound hydrolysis by spectrophotometry
Escherichia coli [9] = test: Ratio of Kcat to Km for Escherichia coli beta-lactamase Toho-1 […] mutant assessed as compound hydrolysis by spectrophotometry
Escherichia coli [10] = test: Activity of Escherichia coli beta-lactamase Toho-1 […] mutant assessed as compound hydrolysis by spectrophotometry
Escherichia coli [11] = test: Antibacterial activity against Escherichia coli AS226 carrying pBSDN104A mutant after 18 hrs by broth microdilution method; type: functional; conditions: AS226, 18 h
Escherichia coli [12] = test: Ratio of Kcat to Km for Escherichia coli beta-lactamase Toho-1 G232A mutant assessed as compound hydrolysis by spectrophotometry
Escherichia coli [13] = test: Antibacterial activity against Escherichia coli AS226 carrying pBSDF160T mutant after 18 hrs by broth microdilution method; type: functional; conditions: AS226, 18 h
Escherichia coli [14] = test: Antibacterial activity against Escherichia coli AS226 carrying pBSDD240A mutant after 18 hrs by broth microdilution method; type: functional; conditions: AS226, 18 h
Escherichia coli [15] = test: Activity of Escherichia coli beta-lactamase Toho-1 C69A mutant assessed as compound hydrolysis by spectrophotometry
Escherichia coli [16] = test: Antibacterial activity against Escherichia coli AS226 carrying pBSD6 mutant after 18 hrs by broth microdilution method; type: functional; conditions: AS226, 18 h
Escherichia coli [17] = test: Activity of Escherichia coli beta-lactamase Toho-1 D240A mutant assessed as compound hydrolysis by spectrophotometry
Escherichia coli [18] = test: Ratio of Kcat to Km for Escherichia coli beta-lactamase Toho-1 D240S mutant assessed as compound hydrolysis by spectrophotometry
Escherichia coli [19] = test: Ratio of Kcat to Km for Escherichia coli beta-lactamase Toho-1 C69A mutant assessed as compound hydrolysis by spectrophotometry
Escherichia coli [20] = test: Antibacterial activity against Escherichia coli AS226 carrying pBSDN104D mutant after 18 hrs by broth microdilution method; type: functional; conditions: AS226, 18 h
Escherichia coli [21] = test: Antibacterial activity against Escherichia coli AS226 carrying pBSDC69A mutant after 18 hrs by broth microdilution method; type: functional; conditions: AS226, 18 h
Escherichia coli [22] = test: Ratio of Kcat to Km for Escherichia coli beta-lactamase Toho-1 N104A mutant assessed as compound hydrolysis by spectrophotometry
Escherichia coli [23] = test: Antibacterial activity against Escherichia coli AS226 after 18 hrs by broth microdilution method; type: functional; conditions: AS226, 18 h
Escherichia coli [24] = test: Ratio of Kcat to Km for Escherichia coli beta-lactamase Toho-1 F160T mutant assessed as compound hydrolysis by spectrophotometry
Escherichia coli [25] = test: Activity of Escherichia coli beta-lactamase Toho-1 N104A mutant assessed as compound hydrolysis by spectrophotometry
Escherichia coli [26] = test: Activity of Escherichia coli beta-lactamase Toho-1 N104D mutant assessed as compound hydrolysis by spectrophotometry
[27] = substrate: C[C@H]1[C@H](NC(=O)/C(=N\OC(C)(C)C(=O)O)c2csc(N)n2)C(=O)N1S(=O)(=O)O; test: (§1) Ratio of Kcat to Km for Escherichia coli wild type beta-lactamase Toho-1 assessed as compound hydrolysis by spectrophotometry
[28] = substrate: CO/N=C(\C(=O)N[C@@H]1C(=O)N2C(C(=O)O)=C(CSc3cnns3)CS[C@H]12)c1csc(N)n1; test: as §1
[29] = substrate: O=C(Cc1cccs1)N[C@@H]1C(=O)N2C(C(=O)[O-])=C(C[n+]3ccccc3)CS[C@H]12; test: as §1
[30] = substrate: CO/N=C(\C(=O)N[C@@H]1C(=O)N2C(C(=O)O)=C(COC(C)=O)CS[C@H]12)c1csc(N)n1; test: as §1
[31] = substrate: CC(=O)OCC1=C(C(=O)O)N2C(=O)[C@@H](NC(=O)Cc3cccs3)[C@H]2SC1; test: as §1
[32] = substrate: CC1(C)S[C@@H]2[C@H](NC(=O)[C@H](N)c3ccccc3)C(=O)N2[C@H]1C(=O)O; test: (§2) Activity of Escherichia coli wild type beta-lactamase Toho-1 assessed as compound hydrolysis by spectrophotometry
[33] = substrate: C[C@H]1[C@H](NC(=O)/C(=N\OC(C)(C)C(=O)O)c2csc(N)n2)C(=O)N1S(=O)(=O)O; test: as §2
[34] = substrate: CO/N=C(\C(=O)N[C@@H]1C(=O)N2C(C(=O)O)=C(CSc3cnns3)CS[C@H]12)c1csc(N)n1; test: as §2
[35] = substrate: O=C(Cc1cccs1)N[C@@H]1C(=O)N2C(C(=O)[O-])=C(C[n+]3ccccc3)CS[C@H]12; test: as §2
[36] = substrate: CO/N=C(\C(=O)N[C@@H]1C(=O)N2C(C(=O)O)=C(COC(C)=O)CS[C@H]12)c1csc(N)n1; test: as §2
[37] = substrate: CC(=O)OCC1=C(C(=O)O)N2C(=O)[C@@H](NC(=O)Cc3cccs3)[C@H]2SC1; test: as §2

Row | Molecule | Km (Escherichia coli [1]) | kcat (Escherichia coli [1]) | MIC (Escherichia coli [2]) | kcat/Km (Escherichia coli [3]) | MIC (Escherichia coli [4]) | Km (Escherichia coli [5]) | kcat (Escherichia coli [5]) | kcat/Km (Escherichia coli [6]) | MIC (Escherichia coli [7]) | Km (Escherichia coli [8]) | kcat (Escherichia coli [8]) | kcat/Km (Escherichia coli [9]) | Km (Escherichia coli [10]) | kcat (Escherichia coli [10]) | MIC (Escherichia coli [11]) | kcat/Km (Escherichia coli [12]) | MIC (Escherichia coli [13]) | MIC (Escherichia coli [14]) | MIC (Escherichia coli [20]) | MIC (Escherichia coli [23]) | also measured
1 | CO/N=C(\C(=O)N[C@@H]1C(=O)N2C(C(=O)O)=C(CSc3cnns3)CS[C@H]12)c1csc(N)n1 [CEFUZONAM] | 190 µM | 630 s⁻¹ | 1020 µg/mL (≈ 1990 µM) | 2.1 ×10⁶ /s/M | 256 µg/mL (≈ 498 µM) | 220 µM | 430 s⁻¹ | 5.7 ×10⁵ /s/M | 2050 µg/mL (≈ 3990 µM) | 220 µM | 470 s⁻¹ | 9.4 ×10⁵ /s/M | 140 µM | 130 s⁻¹ | 16 µg/mL (≈ 31.2 µM) | 3.3 ×10⁶ /s/M | 512 µg/mL (≈ 997 µM) | 1020 µg/mL (≈ 1990 µM) | 64 µg/mL (≈ 125 µM) | < 0.125 µg/mL | Km (Escherichia coli [15]): 240 µM; kcat (Escherichia coli [15]): 560 s⁻¹; MIC (Escherichia coli [16]): 2 µg/mL (≈ 3.89 µM); Km (Escherichia coli [17]): 260 µM; kcat (Escherichia coli [17]): 550 s⁻¹; kcat/Km (Escherichia coli [18]): 2 ×10⁶ /s/M; kcat/Km (Escherichia coli [19]): 2.3 ×10⁶ /s/M; MIC (Escherichia coli [21]): 2050 µg/mL (≈ 3990 µM); kcat/Km (Escherichia coli [22]): 2.8 ×10⁵ /s/M; kcat/Km (Escherichia coli [24]): 2.1 ×10⁶ /s/M
2 | O=C(Cc1cccs1)N[C@@H]1C(=O)N2C(C(=O)[O-])=C(C[n+]3ccccc3)CS[C@H]12 [CEPHALORIDINE] | 290 µM | 440 s⁻¹ | 2050 µg/mL (≈ 4930 µM) | 7.1 ×10⁵ /s/M | 1020 µg/mL (≈ 2460 µM) | 250 µM | 190 s⁻¹ | 3 ×10⁵ /s/M | 1020 µg/mL (≈ 2460 µM) | 430 µM | 470 s⁻¹ | 1.2 ×10⁶ /s/M | 270 µM | 320 s⁻¹ | 32 µg/mL (≈ 77 µM) | 1.5 ×10⁶ /s/M | 512 µg/mL (≈ 1230 µM) | 1020 µg/mL (≈ 2460 µM) | 256 µg/mL (≈ 616 µM) | 2 µg/mL (≈ 4.81 µM) | Km (Escherichia coli [25]): 450 µM; kcat (Escherichia coli [25]): 99 s⁻¹; Km (Escherichia coli [15]): 300 µM; kcat (Escherichia coli [15]): 300 s⁻¹; MIC (Escherichia coli [16]): 8 µg/mL (≈ 19.3 µM); Km (Escherichia coli [26]): 400 µM; kcat (Escherichia coli [26]): 120 s⁻¹; Km (Escherichia coli [17]): 200 µM; kcat (Escherichia coli [17]): 140 s⁻¹; kcat/Km (Escherichia coli [18]): 7.6 ×10⁵ /s/M; kcat/Km (Escherichia coli [19]): 1 ×10⁶ /s/M; MIC (Escherichia coli [21]): 1020 µg/mL (≈ 2460 µM); kcat/Km (Escherichia coli [22]): 2.2 ×10⁵ /s/M; kcat/Km (Escherichia coli [24]): 1.1 ×10⁶ /s/M
3 | CC(=O)OCC1=C(C(=O)O)N2C(=O)[C@@H](NC(=O)Cc3cccs3)[C@H]2SC1 [CEPHALOTHIN] | 150 µM | 620 s⁻¹ | 2050 µg/mL (≈ 5170 µM) | 3.3 ×10⁶ /s/M | 2050 µg/mL (≈ 5170 µM) | 120 µM | 410 s⁻¹ | 2.8 ×10⁶ /s/M | 2050 µg/mL (≈ 5170 µM) | 170 µM | 690 s⁻¹ | 4.8 ×10⁶ /s/M | 77 µM | 370 s⁻¹ | 512 µg/mL (≈ 1290 µM) | 4.1 ×10⁶ /s/M | 2050 µg/mL (≈ 5170 µM) | 2050 µg/mL (≈ 5170 µM) | 2050 µg/mL (≈ 5170 µM) | 2 µg/mL (≈ 5.04 µM) | Km (Escherichia coli [25]): 140 µM; kcat (Escherichia coli [25]): 180 s⁻¹; Km (Escherichia coli [15]): 200 µM; kcat (Escherichia coli [15]): 780 s⁻¹; MIC (Escherichia coli [16]): 128 µg/mL (≈ 323 µM); Km (Escherichia coli [26]): 70 µM; kcat (Escherichia coli [26]): 200 s⁻¹; Km (Escherichia coli [17]): 98 µM; kcat (Escherichia coli [17]): 320 s⁻¹; kcat/Km (Escherichia coli [18]): 3.3 ×10⁶ /s/M; kcat/Km (Escherichia coli [19]): 4 ×10⁶ /s/M; MIC (Escherichia coli [21]): 2050 µg/mL (≈ 5170 µM); kcat/Km (Escherichia coli [22]): 1.2 ×10⁶ /s/M; kcat/Km (Escherichia coli [24]): 4.1 ×10⁶ /s/M
4 | C[C@@H](O)[C@H]1C(=O)N2C(C(=O)O)=C(SCCNC=N)C[C@H]12 [IMIPENEM ANHYDROUS] | – | – | – | – | – | – | – | – | < 0.125 µg/mL | – | – | – | – | – | 0.125 µg/mL (≈ 0.418 µM) | – | – | 0.125 µg/mL (≈ 0.418 µM) | 0.125 µg/mL (≈ 0.418 µM) | < 0.125 µg/mL | –
5 | B1 | – | – | – | – | – | – | – | – | – | – | – | – | – | – | – | – | – | – | – | – | kcat/Km [27]: 1.9 ×10⁵ /s/M; kcat/Km [28]: 3.5 ×10⁶ /s/M; kcat/Km [29]: 1.5 ×10⁶ /s/M; kcat/Km [30]: 1.9 ×10⁶ /s/M; kcat/Km [31]: 4.3 ×10⁶ /s/M; Km [32]: 24 µM; kcat [32]: 42 s⁻¹; Km [33]: 45 µM; kcat [33]: 8.3 s⁻¹; Km [34]: 150 µM; kcat [34]: 530 s⁻¹; Km [35]: 280 µM; kcat [35]: 420 s⁻¹; Km [36]: 210 µM; kcat [36]: 390 s⁻¹; Km [37]: 190 µM; kcat [37]: 790 s⁻¹
